Among the test systems are NCI-H460; A549; SK-MEL-28; Malme-3M; UO-31; NCI-H226; K562; IGROV-1; UACC-257; COLO 205; HOP-62; HCT-15; SF-268; M14; ACHN; LOX IMVI.
What all share (experiment): NCI-60 cell line screen, 48 h

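Growth conditions: 96-well plates. Treatment: test compound, 48 hours, 5 concentrations. Analysis: linear interpolation between bracketing concentrations; unreached endpoints set to highest concentration. GI50 is the concentration that inhibits growth by half.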 The source made the active and inactive calls. Cut-off read from the data, not from the text of the source: active = GI50 up to about 1.1 µM and inactive = higher.

This is an account of results in ChEMBL document CHEMBL1201862, “PubChem BioAssay data set” (2004).

`CCOC(=O)C(=O)Nc1nc2ccc(C)cc2s1`: the GI50 in the experiment with NCI-H460 was > 100 µM (inactive); in the experiment with A549, 32.4 µM (inactive); with SK-MEL-28 it was > 100 µM (inactive); in the experiment on Malme-3M it was > 100 µM (inactive); in the experiment with UO-31, > 100 µM (inactive); with NCI-H226 it was > 100 µM (inactive). The GI50 in the experiment on K562 was > 100 µM (inactive); in the experiment with IGROV-1, > 100 µM (inactive); in the experiment on UACC-257, > 100 µM (inactive); in the experiment with COLO 205 it was > 100 µM (inactive); with HOP-62, > 100 µM (inactive); in the experiment on HCT-15, over 100 µM. The GI50 in the experiment on SF-268, in the experiment on M14 and in the experiment with ACHN was > 100 µM (inactive) each time.
On to `COc1cc2noc(-c3ccccc3)c2cc1OC`, for which the GI50 in the experiment on NCI-H460 was 42.4 µM (inactive); in the experiment with A549, 54.3 µM (inactive); in the experiment with Malme-3M, > 100 µM (inactive); with UO-31, 34.8 µM (inactive); with NCI-H226 it was > 100 µM (inactive); in the experiment with LOX IMVI, 40.6 µM (inactive). The GI50 in the experiment on K562 was 50.6 µM (inactive); in the experiment on IGROV-1 it was > 100 µM (inactive); in the experiment on UACC-257, > 100 µM (inactive); in the experiment with COLO 205, 55.3 µM (inactive); with HOP-62 it was 22.4 µM (inactive); in the experiment with HCT-15, 38.7 µM. In addition, the GI50 is 54 µM (inactive) with SF-268, 55.6 µM (inactive) with M14 and 87.1 µM (inactive) in the experiment on ACHN.
For `COC(=O)C1=C(c2cc(OC)c(OC)c(OC)c2)O[C@H](c2ccc3c(c2)OCO3)[C@H]1COC(C)=O`, the GI50 is 30.5 µM (inactive) with NCI-H460; 34.4 µM (inactive) with Malme-3M; 20.9 µM (inactive) in the experiment on UO-31; 33 µM (inactive) with NCI-H226; 32.1 µM (inactive) in the experiment with LOX IMVI; 21.3 µM (inactive) in the experiment with K562. The GI50 is 22.2 µM (inactive) in the experiment on IGROV-1; 40.7 µM (inactive) in the experiment with UACC-257; 10.7 µM (inactive) in the experiment with COLO 205; 21.5 µM (inactive) with HOP-62; 22.1 µM with HCT-15; 15.3 µM (inactive) in the experiment on M14. The GI50 with ACHN is 26.4 µM (inactive).
For the molecule `CCOC(=O)C(C(=O)OCC)=c1sc(=C(C(=O)OCC)C(=O)OCC)s1`, the GI50 in the experiment on NCI-H460, in the experiment with A549, with SK-MEL-28, in the experiment with Malme-3M, with LOX IMVI and in the experiment with K562 was > 100 µM (inactive) in each case. Further, the GI50 in the experiment with IGROV-1 is > 100 µM (inactive); in the experiment with UACC-257, > 100 µM (inactive); in the experiment on COLO 205 it was > 100 µM (inactive); in the experiment on HOP-62, > 100 µM (inactive); in the experiment on HCT-15, over 100 µM; in the experiment on SF-268, > 100 µM (inactive). Moreover, the GI50 with M14 and in the experiment with ACHN was > 100 µM (inactive) throughout.
As to `COc1ccc(S(=O)(=O)N/N=C/CN2C(=O)c3ccccc3C2=O)cc1`, the GI50 with NCI-H460 is > 100 µM (inactive); in the experiment on A549, > 100 µM (inactive); in the experiment on Malme-3M, > 100 µM (inactive); with UO-31, > 10 µM (inactive); in the experiment on NCI-H226, 47 µM (inactive); with LOX IMVI, > 100 µM (inactive). Moreover, the GI50 was > 100 µM (inactive) with K562; > 100 µM (inactive) with IGROV-1; > 100 µM (inactive) with UACC-257; > 100 µM (inactive) with COLO 205; > 100 µM (inactive) in the experiment with HOP-62; over 100 µM in the experiment on HCT-15. For the same molecule, the GI50 in the experiment with M14 and with ACHN was > 100 µM (inactive) in each case.
As to `O=C1c2ccccc2N2OC3(N4CCCC4)CCCCC3C12c1ccccc1` (stereo unspecified), the GI50 in the experiment on A549 is 21 µM (inactive); with SK-MEL-28, 25.4 µM (inactive); with Malme-3M, 18.8 µM (inactive); in the experiment with UO-31, 39.7 µM (inactive); in the experiment on NCI-H226, 37.3 µM (inactive); in the experiment on K562, 19.5 µM (inactive). Also, the GI50 is 42 µM (inactive) in the experiment with IGROV-1; 19.3 µM (inactive) in the experiment with UACC-257; 17.3 µM (inactive) in the experiment on COLO 205; > 100 µM (inactive) with HOP-62; 26.4 µM in the experiment on HCT-15; 16.6 µM (inactive) in the experiment on SF-268. In addition, the GI50 in the experiment with M14 is 17.6 µM (inactive); in the experiment on ACHN it was 18.5 µM (inactive).
On to `COC(=O)/C=C1/CCC(C(=O)OC)N1` (stereo unspecified), for which the GI50 in the experiment with NCI-H460, in the experiment with A549, in the experiment on SK-MEL-28, in the experiment on UO-31, in the experiment with LOX IMVI and in the experiment with K562 was > 100 µM (inactive) each time. Besides, the GI50 is > 100 µM (inactive) with IGROV-1; > 100 µM (inactive) in the experiment with UACC-257; > 100 µM (inactive) in the experiment with COLO 205; > 100 µM (inactive) with HOP-62; over 100 µM in the experiment on HCT-15; > 100 µM (inactive) with SF-268. Moreover, the GI50 with M14 and with ACHN was > 100 µM (inactive) each time.
As for `CCOC(=O)CNC(SC)=C(C#N)C#N`, the GI50 in the experiment with NCI-H460 is > 100 µM (inactive); in the experiment with A549 it was > 100 µM (inactive); in the experiment on Malme-3M, > 100 µM (inactive); with UO-31 it was 36.7 µM (inactive); in the experiment with NCI-H226, > 100 µM (inactive); with LOX IMVI, > 100 µM (inactive). Besides, the GI50 is > 100 µM (inactive) in the experiment with K562; > 100 µM (inactive) in the experiment on IGROV-1; > 100 µM (inactive) in the experiment with UACC-257; > 100 µM (inactive) in the experiment on COLO 205; > 100 µM (inactive) in the experiment on HOP-62; over 100 µM in the experiment on HCT-15. In addition, the GI50 with SF-268 and in the experiment with M14 was > 100 µM (inactive) in each case.
`O=C1C=C(Nc2ccccc2C(=O)c2ccccc2)c2ccccc2C1=O`: the GI50 in the experiment on NCI-H460 is 71 µM (inactive); in the experiment with A549, > 100 µM (inactive); with SK-MEL-28 it was > 100 µM (inactive); with Malme-3M, > 100 µM (inactive); in the experiment on UO-31, > 100 µM (inactive); in the experiment on NCI-H226 it was > 100 µM (inactive). Moreover, the GI50 is > 100 µM (inactive) in the experiment on IGROV-1; 5.85 µM (inactive) with UACC-257; > 100 µM (inactive) with COLO 205; > 100 µM (inactive) in the experiment on HOP-62; 70.5 µM in the experiment with HCT-15; > 100 µM (inactive) with SF-268. Besides, the GI50 in the experiment on M14 was > 100 µM (inactive); in the experiment on ACHN, 45 µM (inactive).
Take `CC(=O)OCc1c(O)nc2c(c1O)-c1ccccc1CC2`: the GI50 was 77.8 µM (inactive) with NCI-H460; 134 µM (inactive) with A549; 59.6 µM (inactive) in the experiment with SK-MEL-28; > 35 µM (inactive) with Malme-3M; > 350 µM (inactive) in the experiment with NCI-H226; 61.4 µM (inactive) in the experiment on LOX IMVI. Further, the GI50 is 109 µM (inactive) with K562; 164 µM (inactive) with IGROV-1; 81.3 µM (inactive) in the experiment on UACC-257; 57 µM (inactive) with COLO 205; 131 µM (inactive) in the experiment with HOP-62; 57.5 µM in the experiment with HCT-15. Besides, the GI50 is 77.1 µM (inactive) with SF-268 and 163 µM (inactive) in the experiment on ACHN.
